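Where inhibition never reached the appropriate level, the endpoint shown equals the highest concentration tested. Otherwise, values were interpolated linearly from a five-concentration, 48-hour dose response in 96-well plates. Here, GI50 denotes the concentration required for 50% inhibition of growth. TGI marks complete inhibition of growth.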
Legend:
Test in all cases: NCI-60 cell line screen, 48 h
K-562 leukemia = test system: K-562 leukemia
NCI-H460 lung = test system: NCI-H460 lung
786-0 renal = test system: 786-0 renal
HT29 colon = test system: HT29 colon
CCRF-CEM leukemia = test system: CCRF-CEM leukemia
PC-3 prostate = test system: PC-3 prostate
KM12 colon = test system: KM12 colon
RPMI-8226 leukemia = test system: RPMI-8226 leukemia
OVCAR-3 ovarian = test system: OVCAR-3 ovarian
HS 578T breast = test system: HS 578T breast
OVCAR-8 ovarian = test system: OVCAR-8 ovarian
TK-10 renal = test system: TK-10 renal
SK-MEL-2 melanoma = test system: SK-MEL-2 melanoma
SR leukemia = test system: SR leukemia
NCI-H226 lung = test system: NCI-H226 lung
SF-268 CNS = test system: SF-268 CNS
SN12C renal = test system: SN12C renal
SK-MEL-28 melanoma = test system: SK-MEL-28 melanoma
MOLT-4 leukemia = test system: MOLT-4 leukemia
EKVX NSCLC = test system: EKVX NSCLC
HCT-15 colon = test system: HCT-15 colon
NCI-H522 lung = test system: NCI-H522 lung
NCI-H23 lung = test system: NCI-H23 lung
SF-539 CNS = test system: SF-539 CNS
HOP-62 NSCLC = test system: HOP-62 NSCLC
HCC-2998 colon = test system: HCC-2998 colon
ACHN renal = test system: ACHN renal
OVCAR-5 ovarian = test system: OVCAR-5 ovarian
SNB-75 CNS = test system: SNB-75 CNS
MCF7 breast = test system: MCF7 breast
HL-60(TB) leukemia = test system: HL-60(TB) leukemia
HCT-116 colon = test system: HCT-116 colon
U251 CNS = test system: U251 CNS
MALME-3M melanoma = test system: MALME-3M melanoma
SF-295 CNS = test system: SF-295 CNS
UACC-257 melanoma = test system: UACC-257 melanoma
OVCAR-4 ovarian = test system: OVCAR-4 ovarian
RXF 393 renal = test system: RXF 393 renal
UO-31 renal = test system: UO-31 renal
NCI/ADR-RES ovarian = test system: NCI/ADR-RES ovarian
IGROV1 ovarian = test system: IGROV1 ovarian
LOX IMVI melanoma = test system: LOX IMVI melanoma
SNB-19 CNS = test system: SNB-19 CNS
M14 melanoma = test system: M14 melanoma
HOP-92 NSCLC = test system: HOP-92 NSCLC
A498 renal = test system: A498 renal
MDA-MB-435 = test system: MDA-MB-435
MDA-MB-231 breast = test system: MDA-MB-231 breast
CAKI-1 renal = test system: CAKI-1 renal
BT-549 breast = test system: BT-549 breast
SW-620 colon = test system: SW-620 colon
DU-145 prostate = test system: DU-145 prostate
COLO 205 colon = test system: COLO 205 colon
SK-OV-3 ovarian = test system: SK-OV-3 ovarian
SK-MEL-5 melanoma = test system: SK-MEL-5 melanoma
A549 NSCLC = test system: A549 NSCLC
UACC-62 melanoma = test system: UACC-62 melanoma
T-47D breast = test system: T-47D breast

SMILES: O=C(NCCCn1ccnc1[N+](=O)[O-])C(=O)NCCCn1ccnc1[N+](=O)[O-]
- TGI (K-562 leukemia): > 100 µM
- TGI (NCI-H460 lung): > 100 µM
- TGI (786-0 renal): > 100 µM
- TGI (HT29 colon): > 100 µM
- TGI (CCRF-CEM leukemia): > 100 µM
- TGI (PC-3 prostate): > 100 µM
- TGI (KM12 colon): > 100 µM
- TGI (RPMI-8226 leukemia): > 100 µM
- TGI (OVCAR-3 ovarian): > 100 µM
- TGI (HS 578T breast): > 100 µM
- TGI (OVCAR-8 ovarian): > 100 µM
- TGI (TK-10 renal): > 100 µM
- TGI (SK-MEL-2 melanoma): > 100 µM
- TGI (SR leukemia): > 100 µM
- TGI (NCI-H226 lung): > 100 µM
- TGI (SF-268 CNS): > 100 µM
- TGI (SN12C renal): > 100 µM
- TGI (SK-MEL-28 melanoma): > 100 µM
- TGI (MOLT-4 leukemia): > 100 µM
- TGI (EKVX NSCLC): > 100 µM
- TGI (HCT-15 colon): > 100 µM
- TGI (NCI-H522 lung): > 100 µM
- TGI (NCI-H23 lung): > 100 µM
- TGI (SF-539 CNS): > 100 µM
- TGI (HOP-62 NSCLC): > 100 µM
- TGI (HCC-2998 colon): > 100 µM
- TGI (ACHN renal): > 100 µM
- TGI (OVCAR-5 ovarian): > 100 µM
- TGI (SNB-75 CNS): > 100 µM
- TGI (MCF7 breast): > 100 µM
- TGI (HL-60(TB) leukemia): > 100 µM
- TGI (HCT-116 colon): > 100 µM
- TGI (U251 CNS): > 100 µM
- TGI (MALME-3M melanoma): > 100 µM
- TGI (SF-295 CNS): > 100 µM
- TGI (UACC-257 melanoma): > 100 µM

SMILES: Cc1cc(S(N)(=O)=O)c(S/C(=N\NS(=O)(=O)c2ccccc2)c2ccc(Cl)c(Cl)c2)cc1Cl
- GI50 (OVCAR-4 ovarian): 40.6 µM
- TGI (OVCAR-4 ovarian): > 100 µM
- GI50 (RXF 393 renal): 33.3 µM
- TGI (RXF 393 renal): > 100 µM
- GI50 (K-562 leukemia): 32.9 µM
- TGI (K-562 leukemia): > 100 µM
- GI50 (UO-31 renal): 54.5 µM
- TGI (UO-31 renal): > 100 µM
- GI50 (NCI/ADR-RES ovarian): 28.5 µM
- TGI (NCI/ADR-RES ovarian): 77.6 µM
- GI50 (NCI-H460 lung): 29.5 µM
- TGI (NCI-H460 lung): > 100 µM
- GI50 (IGROV1 ovarian): 44 µM
- TGI (IGROV1 ovarian): > 100 µM
- GI50 (LOX IMVI melanoma): 36.1 µM
- TGI (LOX IMVI melanoma): > 100 µM
- GI50 (786-0 renal): 54.9 µM
- TGI (786-0 renal): > 100 µM
- GI50 (SNB-19 CNS): 78.8 µM
- TGI (SNB-19 CNS): > 100 µM
- GI50 (CCRF-CEM leukemia): 86 µM
- TGI (CCRF-CEM leukemia): > 100 µM
- GI50 (PC-3 prostate): 47.4 µM
- TGI (PC-3 prostate): > 100 µM
- GI50 (KM12 colon): 42 µM
- TGI (KM12 colon): > 100 µM
- GI50 (M14 melanoma): 92.3 µM
- TGI (M14 melanoma): > 100 µM
- GI50 (HOP-92 NSCLC): 93.4 µM
- TGI (HOP-92 NSCLC): > 100 µM
- GI50 (A498 renal): 35 µM
- TGI (A498 renal): 87.1 µM
- GI50 (RPMI-8226 leukemia): 28.8 µM
- TGI (RPMI-8226 leukemia): > 100 µM
- GI50 (OVCAR-3 ovarian): 25.8 µM
- TGI (OVCAR-3 ovarian): 72.7 µM
- GI50 (HS 578T breast): 29.9 µM
- TGI (HS 578T breast): 99.3 µM
- GI50 (MDA-MB-435): 42.9 µM
- TGI (MDA-MB-435): > 100 µM
- GI50 (OVCAR-8 ovarian): 32.3 µM
- TGI (OVCAR-8 ovarian): > 100 µM
- GI50 (TK-10 renal): 52 µM
- TGI (TK-10 renal): > 100 µM
- GI50 (SK-MEL-2 melanoma): > 100 µM
- TGI (SK-MEL-2 melanoma): > 100 µM
- GI50 (MDA-MB-231 breast): 28.7 µM
- TGI (MDA-MB-231 breast): > 100 µM
- GI50 (SR leukemia): 27.9 µM
- TGI (SR leukemia): > 100 µM
- GI50 (NCI-H226 lung): 45.1 µM
- TGI (NCI-H226 lung): > 100 µM
- GI50 (CAKI-1 renal): 36.5 µM
- TGI (CAKI-1 renal): > 100 µM
- GI50 (SF-268 CNS): 33.8 µM
- TGI (SF-268 CNS): > 100 µM
- GI50 (SN12C renal): 34.1 µM
- TGI (SN12C renal): > 100 µM
- GI50 (SK-MEL-28 melanoma): 84.1 µM
- TGI (SK-MEL-28 melanoma): > 100 µM
- GI50 (MOLT-4 leukemia): 30.3 µM
- TGI (MOLT-4 leukemia): > 100 µM
- GI50 (EKVX NSCLC): 48.1 µM
- TGI (EKVX NSCLC): > 100 µM
- GI50 (HCT-15 colon): 46.1 µM
- TGI (HCT-15 colon): > 100 µM
- GI50 (NCI-H522 lung): 89 µM
- TGI (NCI-H522 lung): > 100 µM
- GI50 (NCI-H23 lung): 20.3 µM
- TGI (NCI-H23 lung): 49.9 µM
- GI50 (SF-539 CNS): 19.3 µM
- TGI (SF-539 CNS): 64.3 µM
- GI50 (HOP-62 NSCLC): 63.5 µM
- TGI (HOP-62 NSCLC): > 100 µM
- GI50 (ACHN renal): 30 µM
- TGI (ACHN renal): 92.7 µM
- GI50 (BT-549 breast): 38.8 µM
- TGI (BT-549 breast): > 100 µM
- GI50 (OVCAR-5 ovarian): 52.4 µM
- TGI (OVCAR-5 ovarian): > 100 µM
- GI50 (MCF7 breast): 30.5 µM
- TGI (MCF7 breast): > 100 µM
- GI50 (HL-60(TB) leukemia): 21.7 µM
- TGI (HL-60(TB) leukemia): 53.4 µM
- GI50 (SW-620 colon): 37.3 µM
- TGI (SW-620 colon): > 100 µM
- GI50 (DU-145 prostate): 54.2 µM
- TGI (DU-145 prostate): > 100 µM
- GI50 (HCT-116 colon): 38 µM
- TGI (HCT-116 colon): > 100 µM
- GI50 (COLO 205 colon): 45.7 µM
- TGI (COLO 205 colon): > 100 µM
- GI50 (U251 CNS): 28.8 µM
- TGI (U251 CNS): > 100 µM
- GI50 (SK-OV-3 ovarian): > 100 µM
- TGI (SK-OV-3 ovarian): > 100 µM
- GI50 (SK-MEL-5 melanoma): 40.6 µM
- TGI (SK-MEL-5 melanoma): > 100 µM
- GI50 (SF-295 CNS): 36.4 µM
- TGI (SF-295 CNS): > 100 µM
- GI50 (A549 NSCLC): 32.2 µM
- TGI (A549 NSCLC): 96.9 µM
- GI50 (UACC-257 melanoma): 40.3 µM
- TGI (UACC-257 melanoma): > 100 µM
- GI50 (UACC-62 melanoma): 34.7 µM
- TGI (UACC-62 melanoma): > 100 µM

SMILES: Nn1nnc2ccccc21
- TGI (OVCAR-4 ovarian): > 100 µM
- TGI (K-562 leukemia): > 100 µM
- TGI (UO-31 renal): > 100 µM
- TGI (NCI/ADR-RES ovarian): > 100 µM
- TGI (NCI-H460 lung): > 100 µM
- TGI (IGROV1 ovarian): > 100 µM
- TGI (LOX IMVI melanoma): > 100 µM
- TGI (786-0 renal): > 100 µM
- TGI (SNB-19 CNS): > 100 µM
- TGI (HT29 colon): > 100 µM
- TGI (CCRF-CEM leukemia): > 100 µM
- TGI (PC-3 prostate): > 100 µM
- TGI (M14 melanoma): > 100 µM
- TGI (HOP-92 NSCLC): > 100 µM
- TGI (A498 renal): > 100 µM
- TGI (RPMI-8226 leukemia): > 100 µM
- TGI (OVCAR-3 ovarian): > 100 µM
- TGI (MDA-MB-435): > 100 µM
- TGI (OVCAR-8 ovarian): > 100 µM
- TGI (TK-10 renal): > 100 µM
- TGI (MDA-MB-231 breast): > 100 µM
- TGI (SR leukemia): > 100 µM
- TGI (NCI-H226 lung): > 100 µM
- TGI (SF-268 CNS): > 100 µM
- TGI (SN12C renal): > 100 µM
- TGI (SK-MEL-28 melanoma): > 100 µM
- TGI (MOLT-4 leukemia): > 100 µM
- TGI (EKVX NSCLC): > 100 µM
- TGI (HCT-15 colon): > 100 µM
- TGI (NCI-H23 lung): > 100 µM
- TGI (HOP-62 NSCLC): > 100 µM
- TGI (HCC-2998 colon): > 100 µM
- TGI (ACHN renal): > 100 µM
- TGI (BT-549 breast): > 100 µM
- TGI (OVCAR-5 ovarian): > 100 µM
- TGI (SNB-75 CNS): > 100 µM
- TGI (MCF7 breast): > 100 µM
- TGI (HL-60(TB) leukemia): > 100 µM
- TGI (SW-620 colon): > 100 µM
- TGI (DU-145 prostate): > 100 µM
- TGI (HCT-116 colon): > 100 µM
- TGI (COLO 205 colon): > 100 µM
- TGI (U251 CNS): > 100 µM
- TGI (SK-OV-3 ovarian): > 100 µM
- TGI (MALME-3M melanoma): > 100 µM
- TGI (SK-MEL-5 melanoma): > 100 µM
- TGI (SF-295 CNS): > 100 µM
- TGI (T-47D breast): > 100 µM
- TGI (A549 NSCLC): > 100 µM
- TGI (UACC-257 melanoma): > 100 µM
- TGI (UACC-62 melanoma): > 100 µM

From PubChem BioAssay (NCI)
